Measurements taken from article PMC9826262, “Discovery of Benzo[d]imidazole‐6‐sulfonamides as Bromodomain and Extra‐Terminal Domain (BET) Inhibitors with Selectivity for the First Bromodomain” (Chemmedchem, 2022).
Values after ≈ are worked out from the molar mass of the structure shown. Where two headings read alike, the source gives them in different places. One block for each molecule: values may come before it.

How the values were obtained:
[1] = Nephelometric solubility determination; type: physicochemical; conditions: for solubility: aqueous buffer, kinetic from dmso stock, PBS with 1 % DMSO, tested at 50 and 100 μM, room temperature, read-out: Solubility (highest concentration where no precipitate was detected)
Procedure: Solubility determination. Solubility of the compounds was determined using Nepheloskan Ascent® (Labsystems). The experiments were performed at room temperature in 96‐well plates in a final volume of 300 μL. Each compound was tested in quadruplicate at the concentrations of 50 and 100 μM in PBS with 1 % DMSO. The measurements were performed at 4 different time points (T0, 30 min, 60 min, 90 min) from the preparation of the samples. Data obtained were compared to control (PBS with 1 % DMSO) and the ratio sample/control was determined for each compound. Compounds are considered soluble if the ratio is≤3.

[2] = CYPs and UGTs dual-activity microsomal stability; type: in vitro ADME; conditions: human liver microsomes; alamethicin, NADPH and UDPGA cofactors; 37 °C, 60 min
Procedure: In this study, the CYPs and UGTs “dual‐activity” microsomal stability assay was carried out to follow the loss of the test compounds over time under CYP‐ and UGT‐mediated metabolic pathways. In detail, the compounds were added to human liver microsomes in the presence of alamethicin, NADPH and UDPGA as cofactors.[24] Alamethicin, a pore‐forming peptide, was used to activate UGTs in human liver microsomes. Testosterone was used as positive control while the negative control was prepared by incubation of the compounds without cofactors up to 60 min. The negative control is essential to detect problems such as non‐specific protein binding or heat instability.
Instrumentation and chromatographic conditions. The metabolic stability of investigated compounds was monitored using a Nexera UHPLC system (Shimadzu, Kyoto, Japan) consisting of a CBM‐20A controller, two LC‐30AD pumps, an SPD‐M20A photo diode array detector, a CTO‐20AC column oven and, a SIL‐30AC autosampler. The chromatographic analyses were accomplished on a Kinetex® Evo C18 column, 150×2.1 mm×2.6 μm (Phenomenex®, Bologna, Italy) maintained at 40 °C. The optimal mobile phase consisted of 0.1 % HCOOH/H2O v/v (A) and 0.1 % HCOOH/ACN v/v (B) delivered at constant flow rate of 0.5 mL/min ^−1. Analysis was performed in gradient elution as follows: 0–8.00 min, 5–95 % B; 8.00–10.00 min, isocratic to 95 % B; then five minutes for column re‐equilibration. Data acquisition was set in the range 190–800 nm and chromatograms were monitored at 254 nm.
In vitro drug metabolism using human liver microsomes. 25 μL of 5 mg/mL human […] microsomes (Thermo Fisher Scientific, Bremen, Germany) were pre‐incubated with 0.625 μL of 100 μg/mL alamethicin. Then 2.5 μL of sample (5 mM) with 168 μL of 100 mM phosphate buffer (pH 7.4), 4 μL of 500 mM MgCl2 were added, the mixture was incubated at 37 °C for 5 min. Optimal UGT activity can be achieved by the addition of MgCl2 and alamethicin as pore forming antibiotic. These components allow for the efficient transfer of a glucuronide product and the cofactor uridine 5′‐diphospho‐α‐D‐glucuronic acid (UDPGA) within the microsomal matrix. The reaction has started by adding 50 μL of mix NADPH 20 mM and UDP‐GlcUA 20 mM as cofactors (1 : 1 v/v) and carried out 37 °C for 60 min in a Thermomixer comfort (Eppendorf, Hamburg, Germany). The reaction was stopped by the addition of 200 μL ice‐cold acetonitrile and then samples were centrifuged at 14,000 rpm at 25 °C for 5 min (Eppendorf® microcentrifuge 5424, Hamburg, Germany). The supernatants were collected and injected in UHPLC. The control at 0 min was obtained by addition of ice‐cold acetonitrile immediately after incubation with microsomes. […]

in vitro = conditions: PAMPA, pH 7.4
Procedure: Membrane permeability was estimated by the well‐validated parallel artificial membrane permeability assay (PAMPA) technique.[17, 26]
Parallel Artificial Membrane Permeability Assay (PAMPA). Donor solution (0.2 mM) was prepared by diluting 20 mM dimethyl sulfoxide (DMSO) compound stock solution using phosphate buffer (pH 7.4, 0.01 M). Filters were coated with 5 μL of a 1 % (w/v) dodecane solution of L‐α‐phosphatidylcholine. Donor solution (150 μL) was added to each well of the filter plate. To each well of the acceptor plate, 300 μL of solution (5 % DMSO in phosphate buffer) was added. […] The sandwich was incubated for 24 h at room temperature under gentle shaking. After the incubation time, the sandwich plates were separated and 250 μL of the acceptor plate was transferred to a UV quartz microtiter plate and measured by UV spectroscopy, using a Multiskan GO microplate spectrophotometer (Thermo Fisher Scientific) at 250–500 nm at a step of 5 nm. Reference solutions (250 μL) were prepared diluting the sample stock solutions to the same concentration as that with no membrane barrier.
In this equation, VR is the volume of the acceptor compartment (0.3 cm^3), VD is the donor volume (0.15 cm^3), A is the accessible filter area (0.24 cm^2), and t is the incubation time in seconds.

BRD4 BD1 = target: T1, BRD4 BD1 (Homo sapiens, UniProt O60885); conditions: cited from earlier work
T1 construct: The microsyringe was loaded with a solution of BRD4 BD1; His6 (cleaved yes); made in house; host or cells: E. coli BL21(DE3)-R3-pRARE2

[3] = test system: BD1 and BD2 of BRD2 and BRD3; conditions: cited from earlier work
BRD4 BD2 = conditions: cited from earlier work
BRD2(BD1) = target: T2, BRD2(BD1) (Homo sapiens, UniProt P25440); experiment: TR-FRET displacement binding assay; conditions: AlexaFluor647 derivative of 1
T2 construct: tested on BD1 and BD2 domains (6×His‐tagged) of each BET protein
Procedure: (§1) TR‐FRET assay. […] Compound was diluted in assay buffer (150 mM HEPES, 150 mM NaCl, 5 % glycerol, 1 mM DTT, and 1 mM CHAPS, pH 7.4), starting from a stock solution of 10 mM (100 % DMSO). The highest concentration tested was 100 μM and from this concentration 11 three‐fold dilutions were prepared. […] TR‐FRET ratio was calculated using the following equation: ratio=acceptorfluorescenceat665nm/donorfluorescenceat615nm×1000
(§2) Compound was tested in triplicate and data were analyzed using GraphPad Prism software (version 8.0) using the equation log(inhibitor) vs. normalized response‐variable slope.

BRD2(BD2) = target: T3, BRD2(BD2) (Homo sapiens, UniProt P25440); experiment: TR-FRET displacement binding assay; conditions: AlexaFluor647 derivative of 1
T3 construct: tested on BD1 and BD2 domains (6×His‐tagged) of each BET protein
Procedure: as §1, §2

BRD3(BD2) = target: T4, BRD3(BD2) (Homo sapiens, UniProt Q15059); experiment: TR-FRET displacement binding assay; conditions: AlexaFluor647 derivative of 1
T4 construct: tested on BD1 and BD2 domains (6×His‐tagged) of each BET protein
Procedure: as §1, §2

[4] = test system: BD1 and BD2 of BET proteins (BRD2, BRD3, BRD4 and BRDT); experiment: Protein stability shift assay (ΔTm), BET bromodomains; type: binding; conditions: compound 10 μM; protein 2 μM
Procedure: The compounds were tested at 10 μM fixed dose and the pan‐BET inhibitor 1 was used as a reference compound.[22] The results obtained from this screening supported our design strategy.
Protein stability shift assay. Thermal melting experiments were carried out using an Mx3005p Real Time PCR machine (Stratagene). Proteins were buffered in 10 mM HEPES pH 7.5, 500 mM NaCl and assayed in a 96‐well plate at a final concentration of 2 μM in 20 μL volume. Compounds were added at a final concentration of 10 μM. SYPRO Orange (Molecular Probes) was added as a fluorescence probe at a dilution of 1 : 1000. Excitation and emission filters for the SYPRO‐Orange dye were set to 465 nm and 590 nm, respectively. The temperature was raised with a step of 3 °C per minute from 25 °C to 96 °C and fluorescence readings were taken at each interval. The temperature dependence of the fluorescence during the protein denaturation process was approximated by the equation yT=yF+yU-yF/1+e^ΔuGT/RT
where ΔuG(T) is the difference in unfolding free energy between the folded and unfolded state, R is the gas constant and yF and yU are the fluorescence intensity of the probe in the presence of completely folded and unfolded protein, respectively. The baselines of the denatured and native states were approximated by a linear fit. The observed temperature shifts, ΔTm obs, were recorded as the difference between the transition midpoints of sample and reference wells containing protein without ligand in the same plate and determined by non‐linear least squares fit.

HeLa cells = experiment: MTT cell viability assay; type: cell-based, human; conditions: 50 μM, 72 h
Procedure: Cells were incubated with different compound concentrations (50 μM, 5 μM and 0.5 μM) for different times (24, 48 and 72 h) and cellular viability was determined performing an MTT (3‐(4,5‐dimethylthiazol‐2‐yl)‐2,5‐diphenyl‐2H‐tetrazolium bromide) assay.
Cell Viability Assay. HeLa cell line was cultured in DMEM supplemented with 10 % (v/v) fetal bovine serum, 100 U/mL penicillin, 100 μg/mL streptomycin, and 2 mM L‐glutamine at 37 °C in a 5 % CO2 atmosphere. Cell viability was determined using a 3‐(4,5‐dimethylthiazol‐2‐yl)‐2,5‐diphenyltetrazolium bromide (MTT) assay. […] The mitochondrial dependent reduction of MTT to formazan was used to assess cell viability. Live cells reduce yellow MTT to purple formazan. The formazan was solubilized in DMSO, and absorbance was measured at 550 nm and corrected for 620 nm background. Experiments were performed in quadruplicate and all values are expressed as the percentage of the control containing 1 % DMSO.

BRD3(BD1) = target: T5, BRD3(BD1) (Homo sapiens, UniProt Q15059); experiment: TR-FRET displacement binding assay; conditions: AlexaFluor647 derivative of 1
T5 construct: tested on BD1 and BD2 domains (6×His‐tagged) of each BET protein
Procedure: as §1, §2

[5] = set-up: method as in PMID 32193360; conditions: cited from earlier work
MV4‐11 cell line = conditions: read-out: IC50 cell growth MV4‐11; cited from earlier work
THP‐1 cell line = conditions: read-out: IC50 cell growth THP‐1; cited from earlier work
BD1 in all BET proteins = conditions: cited from earlier work
HL60 cell line = conditions: read-out: IC50 cell growth HL60; cited from earlier work
BD1 of BET proteins = conditions: cited from earlier work

T4 sequence (Q15059 306-415 limits assumed): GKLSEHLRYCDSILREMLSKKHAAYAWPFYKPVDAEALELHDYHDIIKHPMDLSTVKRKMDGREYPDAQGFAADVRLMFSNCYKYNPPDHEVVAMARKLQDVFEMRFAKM
T5 sequence (Q15059 34-140 limits assumed): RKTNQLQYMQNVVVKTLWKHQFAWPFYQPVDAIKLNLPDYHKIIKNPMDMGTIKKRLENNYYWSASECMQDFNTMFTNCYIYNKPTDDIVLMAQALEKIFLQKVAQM
T2 sequence (P25440 74-180 limits assumed): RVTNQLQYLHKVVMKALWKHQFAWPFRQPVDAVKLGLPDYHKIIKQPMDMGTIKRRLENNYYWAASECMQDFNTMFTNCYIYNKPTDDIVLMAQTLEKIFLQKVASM
T3 sequence (P25440 344-453 limits assumed): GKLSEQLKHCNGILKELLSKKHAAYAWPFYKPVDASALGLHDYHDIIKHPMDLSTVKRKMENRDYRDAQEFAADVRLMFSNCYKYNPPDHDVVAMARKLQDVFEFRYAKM

- solubility [1]: 50 µM (≈ 20.3 µg/mL)
- CYPs and UGTs “dual‐activity” microsomal stability (percentage of the parent compound turnover) [2]: 7.5±1.0%
- Papp at 24 h, 0.2 mM (in vitro): 1.1 ×10⁻⁶ cm/s
SMILES: Cc1cc(/N=N/c2ccc(S(=O)(=O)Nc3ccc(C#N)cc3)cc2)cc(C)c1O [7 b, MS611]
- Ki (BRD4 BD1): 410 nM
- Selectivity between BD1 and BD2 of BRD2 and BRD3 (words) [3]: almost no selectivity between each BDs domain of BRD3 and BRD2
- Selectivity between BD1 and BD2 of BRD2 and BRD3 (words) ([3]; listed as MS611): almost no difference in binding affinity between BD1 and BD2 of BRD2 and BRD3
- Ki (BRD4 BD2): 41300 nM

SMILES: Cc1cc(-c2nc3ccc(S(=O)(=O)Nc4ccccn4)cc3[nH]2)cc(C)c1O [9 a, 2‐(4‐hydroxy‐3,5‐dimethylphenyl)‐N‐(pyridin‐2‐yl)‐1H‐benzo[d]imidazole‐6‐sulfonamide]
- Solubility at 100 μM ([1]; 100 μM, aqueous solution with 1 % DMSO): still soluble
- solubility [1]: 100 µM (≈ 39.4 µg/mL)
- CYPs and UGTs “dual‐activity” microsomal stability (percentage of the parent compound turnover) [2]: 1.0±0.3%
- IC50 (BRD2(BD1)): 126 ± 19 nM
- Papp at 24 h, 0.2 mM (in vitro): 0.107 ×10⁻⁶ cm/s
- IC50 (BRD2(BD2)): 22000 ± 8000 nM
- IC50 (BRD3(BD2)): 7000 ± 3000 nM
- ΔTm screening against BET bromodomains [4]: increase in the melting temperature of all BET proteins
- Decrease of cell viability (HeLa cells): around 30%
- IC50 (BRD3(BD1)): 180 ± 20 nM

SMILES: COCc1nc2cnc3cc(-c4c(C)noc4C)c(OC[C@H]4CCNC4)cc3c2n1[C@H](C)c1ccccc1 [Compound 5, GSK778]
- Pharmacokinetic properties [5]: poor pharmacokinetic properties

SMILES: Cc1cc2c(-c3ccco3)cnc(N[C@@H]3CCN(C)C[C@H]3C(=O)NC3CCCCC3)c2[nH]c1=O [Compound 6, GSK789]
- IC50 (MV4‐11 cell line): 25 nM
- IC50 (THP‐1 cell line): 258 nM
- IC50 (BD1 in all BET proteins): 30 nM
- Selectivity for BD1 over BD2 in all BET proteins (BD1 in all BET proteins): 1000 fold
- IC50 (HL60 cell line): 390 nM

SMILES: CC(=O)NCCCCn1c2c(c3ccccc31)C(=O)NCC2 [Olinone]
- Kd (BD1 of BET proteins): 3400 nM
